Test results from patent US11999782B2, “Therapeutic agents for the treatment of diseases associated with undesired cell proliferation” (Fundació Privada Institutció Catalana de Recerca I Estudis …, priority 2009, dated 2024).

Assays:
GBM neurospheres = assay: Differentiation of GBM neurospheres (neuroprogenitor markers, adhesion); type: cell-based, human; conditions: 7 days without EGF or FGF; for adhesion to the culture plate / morphology versus control cells: GBM neurospheres, poly-L-lysine
Experimental: FIG. 7. TGFβ and LIF prevent the differentiation of GBM neurospheres. (A) Immunocytochemistry of the indicated proteins was performed in neurospheres derived from GBM1 treated with 100 pM TGFβ1 or 20 ng/ml LIF for 7 days in the absence of growth factors and the last 3 days on slides coated with poly-L-lysine. (B) The mRNA levels of Musashi-1 (Msi-1), Sox2 and Nestin were determined in GBM1 neurospheres after 7 days of the indicated treatments without growth factors. The RNA levels of 18S were used as an internal normalization control.
The immunocytochemistry of neurospheres and differentiated neurospheres was performed as described (Geshwind et al., 2001) using the following antibodies: anti-nestin (Chemicon), anti-GFAP (Dako), anti-TuJ1 (Chemicon), anti-04 (Chemicon), anti-Sox2 (Chemicon), anti-α-tubulin (Sigma). The nuclei were counterstained with 4′,6-diamino-2-phenylindole (DAPI).
(§1) qRT-PCR was performed using Taqman probes from Applied Biosystems, according to the manufacturer's recommendations. The reactions were carried out in a ABI 7000 sequence detector (Perkin Elmer) and the results were expressed as the fold change calculated by means of the DDCt method relative to the control sample or the first quantified sample. The ribosomal unit of 18S or β-actin were used as internal normalization controls.
The neurospheres derived from GBMs grown in the absence of growth factors and seeded in poly-L-lysine-coated plates tend to differentiate losing the expression of the neuroprogenitor markers Musashi-1, Sox2 and Nestin, and being adhered to the culture plate. It was decided to evaluate the effect of TGFβ and LIF on this differentiation process. The neurospheres were cultured in the presence of TGFβ or LIF without EGF or FGF for 7 days and subsequently processed for immunohistochemical staining and qRT-PCR assays for determining the levels of the neuroprogenitor markers Musashi-1, Sox2 and Nestin.

[1] = tested on: LIF expression in GBM neurospheres; assay: LIF mRNA by qRT-PCR in GBM neurospheres; type: cell-based, human; conditions: 3 hours; for LIF transcript in neurospheres derived from patients: 100 pM, medium without serum
Experimental: FIG. 3. TGFβ induces the expression of LIF in PCTC and GBM neurospheres. (A) PCTC cells of the 11 samples of the indicated GEM (GBM1-11) were treated with 100 pM TGFβ1 for 3 hours in medium without serum or left untreated, and the expression levels of LIF were determined by means of qRT-PCR. The g-actin was determined as an internal normalization control. (B) GBM neurosphere cells were treated as in A and the expression levels of LIF were determined by means of qRT-PCR as in A. (C) GBM neurospheres were incubated with 100 pM TGFβ1 and/or 2 μM TβRI inhibitor for 3 hours in medium without serum and the mRNA levels of LIF were determined by means of qRT-PCR as in A. (D) GBM1 neurospheres were incubated with 100 pM TGFβ1, TGFβ2 and TGFβ3 for 3 hours in medium without serum and the mRNA levels of LIF were determined by means of qRT-PCR as in A. (E) The levels of LIF protein secreted were determined by means of ELISA in GBM1 neurospheres after 48 hours of treatment with 100 pM TGFβ1.
The U373MG and A172 cells were a generous gift from J. Rich and D. Bigner and were cultured in DMEM with 10% fetal bovine serum (FBS). The primary culture of tumor cells (PCTC) and the GBM neurospheres were generated as described (Bruna et al., (2007) Cancer Cell 11, 147-160; Gunther et al., (2008) Oncogene. May 1; 27(20):2897-909). Briefly, the samples of tumors were processed in the 30 minutes after the surgical resection. The ground pieces of the samples of human gliomas were digested with 200 U/ml collagenase I (Sigma) and 500 U/ml of DNase I (Sigma) in PBS for 2 hours at 37° C. and with constant vigorous stirring. The suspension of individual cells was filtered through a 70 μm cell filter (BD Falcon) and washed with PBS. Finally, the cells were resuspended and subsequently cultured in DMEM with 10% FBS, for the culture of PCTCs, or in neurosphere medium in the case of the GBM neurospheres. The neurospheres of normal human neuroprogenitors were generated from human embryonic cerebral cortex tissue (12-16 weeks after the conception) collected after voluntary abortions. The samples were processed and cultured as described (Poltavtseva et al. (2002) Brain Res Dev Brain Res 134, 149-154). The neurosphere medium consists of neurobasal medium (Gibco) supplemented with B27 (Gibco), L-glutamine (Gibco), penicillin/streptomycin, and growth factors (20 ng/mL EGF and 20 ng/mL FGF-2 (Peprotech)).
as §1
It was decided to investigate the molecular mechanisms responsible for the effect of TGFβ on GICs. Gene responses to TGFβ in GBM cells which could be involved in the regulation of the self-renewal of GICs were investigated. In a previous work (Bruna et al., 2007), transcriptome analyses were conducted in the U373MG glioma cell line treated with TGFβ and/or a TβRI inhibitor. LIF was among the 63 gene responses to TGFβ in U373MG which were dependent on the activity of TβRI. […] A panel of PCTCs derived from 11 different human GBMs was treated with TGFβ for 3 hours and the levels of LIF mRNA were determined.

Compound | expression of Musashi-1, Sox2 and Nestin (immunocytochemistry, qRT-PCR) (GBM neurospheres; GBM1 neurospheres, 100 pM TGFβ1 or 20 ng/ml LIF) | adhesion to the culture plate / morphology versus control cells (GBM neurospheres) | LIF transcript in neurospheres derived from patients [1] | LIF transcript in neurospheres derived from patients ([1]; listed as TGFβ1) | effect on the induction of LIF by TGFβ ([1]; GBM neurospheres, 100 pM TGFβ1 with 2 μM TβRI inhibitor)
LIF: recombinant leukemia inhibitory factor, an IL-6 type cytokine (Chemicon) | maintained the expression | adhered less to the culture plate | – | – | –
TGFβ: TGFβ1 (R&D Systems), used at 100 pM according to the figure legends | – | adhered less to the culture plate | capable of inducing the LIF transcript | capable of inducing LIF | –
NC(=O)c1ccc(-c2nc(-c3ccc4c(c3)OCO4)c(-c3ccccn3)[nH]2)cc1 [TβRI inhibitor, SB431542, reference compound] | – | – | – | – | blocked
